# Data taken from patent US8044198B2, “Sirtuin modulating compounds” (Sirtris Pharmaceuticals, Inc., priority 2005, dated 2011).
# Read-outs that look alike come from different tables or passages of the source.
# Biological target: T1, SIRT1 (Homo sapiens, UniProt Q96EB6)
# T1 sequence (Q96EB6 1-747): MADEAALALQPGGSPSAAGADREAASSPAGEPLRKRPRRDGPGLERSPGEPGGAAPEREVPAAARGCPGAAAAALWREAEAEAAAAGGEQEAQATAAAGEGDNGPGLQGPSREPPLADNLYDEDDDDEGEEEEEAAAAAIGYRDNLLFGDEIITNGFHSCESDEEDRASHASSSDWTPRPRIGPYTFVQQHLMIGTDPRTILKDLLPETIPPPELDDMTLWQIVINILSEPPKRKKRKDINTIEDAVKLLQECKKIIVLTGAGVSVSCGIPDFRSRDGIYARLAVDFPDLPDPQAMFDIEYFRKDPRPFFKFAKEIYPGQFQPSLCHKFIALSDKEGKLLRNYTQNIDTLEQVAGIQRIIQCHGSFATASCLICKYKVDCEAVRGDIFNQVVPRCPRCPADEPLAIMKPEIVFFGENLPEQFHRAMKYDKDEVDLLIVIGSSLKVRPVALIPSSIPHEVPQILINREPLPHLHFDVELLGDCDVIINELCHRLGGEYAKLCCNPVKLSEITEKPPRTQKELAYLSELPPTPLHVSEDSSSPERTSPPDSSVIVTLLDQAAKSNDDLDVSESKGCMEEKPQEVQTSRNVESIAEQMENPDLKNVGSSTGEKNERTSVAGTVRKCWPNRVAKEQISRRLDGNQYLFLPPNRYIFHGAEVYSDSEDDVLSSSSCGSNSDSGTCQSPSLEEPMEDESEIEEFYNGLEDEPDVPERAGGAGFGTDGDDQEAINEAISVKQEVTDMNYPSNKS
# Assay: SIRT1 mass spectrometry (MS) based deacetylation assay; on FOLD ACT. MS: test concentration or dose not given here
# Type: biochemical
# Details: for EC50: mass spectrometry assay, read-out: ED50 MS ASSAY
# [1] = fold activation of SIRT1, mass spectrometry assay
# [2] = Sirt1 activators, fold activation as determined by MS
# [3] = SIRT1 fold activation as determined by MS
# [4] = fold activation of SIRT1 as determined by MS
smiles,measurement,setting,value
COc1ccc(C(=O)Nc2ccccc2-c2cn3cc(CN4CCNCC4)sc3n2)cc1OC [Compound 270],EC50,SIRT1 activation,5 to 50 µM
same,FOLD ACT. MS,[1],A (A (Fold activation >250%))
COc1cc(C(=O)Nc2ccccc2-c2nc3ncccc3o2)ccc1CN1CCOCC1 [Compound 631],FOLD ACT. MS,[2],B (B (Fold Activation <250%))
same,EC50,Sirt1 activators,< 5 µM
O=C(Nc1ccccc1-c1nc2cc(CN3CCOCC3)cnc2s1)c1ccc2ccccc2n1 [Compound 724],EC50,SIRT1 activation,< 5 µM
same,FOLD ACT. MS,[3],A (A (Fold activation >250%))
O=C(Nc1ccccc1-c1nc2ccccc2[nH]1)c1ccc2ccccc2n1 [Compound 556],FOLD ACT. MS,[2],A (A (Fold activation >250%))
same,EC50,Sirt1 activators,< 5 µM
S=C(Nc1ccc2c(c1)OCO2)Nc1cccc(-c2nc3ncccc3o2)n1 [Compound 147],EC50,SIRT1 activation,> 150 µM
O=C(Nc1ccccc1-c1cn2c(CN3CCNCC3)csc2n1)c1cccc2cccnc12 [Compound 692],EC50,SIRT1 activation,101 to 150 µM
same,FOLD ACT. MS,[3],B (B (Fold Activation <250%))
COc1cc(C(=O)Nc2cc(-c3nc4ncccc4o3)ccn2)ccc1CN1CCCC1 [Compound 572],FOLD ACT. MS,[2],B (B (Fold Activation <250%))
same,EC50,Sirt1 activators,51 to 100 µM
O=C(Nc1ccccc1-c1nc2cc(CN3CCOCC3)cnc2s1)c1ccc2c(c1)OCO2 [Compound 683],EC50,SIRT1 activation,5 to 50 µM
same,FOLD ACT. MS,[3],B (B (Fold Activation <250%))
COc1ccc(C(=O)Nc2ccccc2-c2nc3cnccc3s2)c(OC)c1OC [Compound 411],EC50,SIRT1 activation,5 to 50 µM
same,FOLD ACT. MS,[1],B (B (Fold Activation <250%))
COc1cc(C(=O)Nc2cccc(-c3nc4cnccc4s3)c2)cc(OC)c1OC [Compound 273],EC50,SIRT1 activation,5 to 50 µM
same,FOLD ACT. MS,[1],A (A (Fold activation >250%))
CN(C)c1cccc(C(=O)Nc2ccccc2-c2cn3c(CN4CCNCC4)csc3n2)c1 [Compound 327],EC50,SIRT1 activation,5 to 50 µM
same,FOLD ACT. MS,[1],A (A (Fold activation >250%))
COc1ccc(C(=O)Nc2cccc(-c3csc(C)n3)c2)cc1OC [Compound 80],EC50,SIRT1 activation,5 to 50 µM
same,FOLD ACT. MS,[4],B (B (Fold Activation <250%))
"CN(C)c1cccc(C(=O)Nc2cccc(-c3nc4nc(CN5CCNCC5)ccc4o3)c2)c1 [Compound 166, 3-dimethylamino-N-[3-(5-piperazin-1-ylmethyl-oxazolo[4,5-b]pyridin-2-yl)-phenyl]-benzamide]",EC50,SIRT1 activation,5 to 50 µM
same,FOLD ACT. MS,[4],B (B (Fold Activation <250%))
COc1cc(C(=O)Nc2cc(-c3nc4ncccc4o3)ccn2)ccc1CN1CCOCC1 [Compound 642],FOLD ACT. MS,[2],B (B (Fold Activation <250%))
same,EC50,Sirt1 activators,> 150 µM
COc1ccc(C(=O)Nc2ccccc2-c2cn3c(CN4CCNCC4)csc3n2)cc1OC [Compound 207],EC50,SIRT1 activation,5 to 50 µM
same,FOLD ACT. MS,[4],A (A (Fold activation >250%))
COc1ccc(C(=O)Nc2ccccc2-c2cn3c(CN4CCNCC4)csc3n2)cc1F [Compound 679],FOLD ACT. MS,[2],B (B (Fold Activation <250%))
same,EC50,Sirt1 activators,5 to 50 µM
COc1cc(C(=O)Nc2ccccc2-c2nc3cc(CN(C)C)cnc3s2)cc(OC)c1OC [Compound 689],EC50,SIRT1 activation,5 to 50 µM
same,FOLD ACT. MS,[3],A (A (Fold activation >250%))
O=C(Nc1ccccc1-c1nc2cccnc2[nH]1)c1ccccc1 [Compound 533],FOLD ACT. MS,[2],B (B (Fold Activation <250%))
same,EC50,Sirt1 activators,< 5 µM
CN1CCN(Cc2csc3nc(-c4ccccc4NC(=O)c4cnc5ccccc5n4)cn23)C(=O)C1 [Compound 741],EC50,SIRT1 activation,< 5 µM
same,FOLD ACT. MS,[3],A (A (Fold activation >250%))
O=C(Nc1cccc(-c2nc3ncccc3o2)c1)c1ccccc1N1CCOCC1 [Compound 109],EC50,SIRT1 activation,5 to 50 µM
same,FOLD ACT. MS,[4],B (B (Fold Activation <250%))
COc1cc(C(=O)Nc2ccccc2-c2nc3cc(CN4CCN(C)CC4)cnc3s2)cc(OC)c1OC [Compound 702],EC50,SIRT1 activation,5 to 50 µM
same,FOLD ACT. MS,[3],A (A (Fold activation >250%))
O=C(Nc1cccc(-c2nc3ccncc3s2)c1)c1cccs1 [Compound 223],EC50,SIRT1 activation,< 5 µM
same,FOLD ACT. MS,[1],B (B (Fold Activation <250%))
CN(C)c1cccc(C(=O)Nc2ccccc2-c2nc3ccncc3o2)c1 [Compound 458],EC50,SIRT1 activation,< 5 µM
same,FOLD ACT. MS,[1],B (B (Fold Activation <250%))
"COc1ccc(C(=O)Nc2cc(C(=O)N3CCNCC3)cc(-c3nc4ncccc4o3)c2)cc1OC [Compound 107, 3,4-dimethoxy-N-(3-(oxazolo[4,5-b]pyridin-2-yl)-5-(piperazine-1-carbonyl)phenyl)benzamide]",EC50,SIRT1 activation,5 to 50 µM
same,FOLD ACT. MS,[4],B (B (Fold Activation <250%))
O=C(Nc1ccccc1-c1cn2cc(CN3CCNCC3)sc2n1)c1cnc2ccccc2n1 [Compound 513],FOLD ACT. MS,[2],A (A (Fold activation >250%))
same,EC50,Sirt1 activators,< 5 µM
CN(C)c1ccc(NC(=O)Nc2cccc(-c3nc4ncccc4o3)n2)cc1 [Compound 87],EC50,SIRT1 activation,> 150 µM
CN(C)c1cccc(C(=O)Nc2cc(C(=O)N3CCNCC3)cc(-c3nc4ncccc4o3)c2)c1 [Compound 138],EC50,SIRT1 activation,5 to 50 µM
same,FOLD ACT. MS,[4],B (B (Fold Activation <250%))
O=C(Nc1ccccc1-c1nc2cc(CN3CCNCC3)cnc2s1)c1ccc2ccccc2n1 [Compound 646],FOLD ACT. MS,[2],A (A (Fold activation >250%))
same,EC50,Sirt1 activators,5 to 50 µM
COc1cc(C(=O)Nc2cccc(-c3nc4sccn4n3)c2)cc(OC)c1OC [Compound 118],EC50,SIRT1 activation,5 to 50 µM
same,FOLD ACT. MS,[4],A (A (Fold activation >250%))
COc1ccc(S(=O)(=O)Nc2cccc(-c3nc4ncccc4o3)n2)cc1OC [Compound 60],EC50,SIRT1 activation,5 to 50 µM
O=C(Nc1ccccc1-c1cn2c(n1)CCCC2)c1cnc2ccccc2n1 [Compound 548],FOLD ACT. MS,[2],B (B (Fold Activation <250%))
same,EC50,Sirt1 activators,< 5 µM
COc1cccc(C(=O)Nc2ccccc2-c2nc3cccnc3[nH]2)c1 [Compound 532],FOLD ACT. MS,[2],B (B (Fold Activation <250%))
same,EC50,Sirt1 activators,< 5 µM
N#Cc1cccc(C(=O)Nc2ccccc2-c2cn3c(CN4CCNCC4)csc3n2)c1 [Compound 330],EC50,SIRT1 activation,5 to 50 µM
same,FOLD ACT. MS,[1],A (A (Fold activation >250%))
O=C(Nc1ccccc1-c1cn2c(CN3CCNCC3)csc2n1)c1cccc(-c2cc[nH]n2)c1 [Compound 733],EC50,SIRT1 activation,< 5 µM
same,FOLD ACT. MS,[3],A (A (Fold activation >250%))
COc1ccc(C(=O)Nc2ccccc2-c2cnc3ccccc3c2)cc1OC [Compound 414],EC50,SIRT1 activation,5 to 50 µM
same,FOLD ACT. MS,[1],B (B (Fold Activation <250%))
COc1cc(C(=O)Nc2cccc(-c3nc4ncccn4c3C)c2)cc(OC)c1OC [Compound 219],EC50,SIRT1 activation,5 to 50 µM
same,FOLD ACT. MS,[1],A (A (Fold activation >250%))
COc1ccc(-c2cc(C(=O)Nc3ccccc3-c3cn4c(CN5CCNCC5)csc4n3)[nH]n2)cc1 [Compound 735],EC50,SIRT1 activation,< 5 µM
same,FOLD ACT. MS,[3],A (A (Fold activation >250%))
COc1cc(C(=O)Nc2cccc(-c3cn4cccc(C)c4n3)c2)cc(OC)c1OC [Compound 131],EC50,SIRT1 activation,5 to 50 µM
same,FOLD ACT. MS,[4],A (A (Fold activation >250%))
COc1ccc(C(=O)Nc2cccc(-c3nc4cccnc4s3)c2)c(OC)c1 [Compound 213],EC50,SIRT1 activation,< 5 µM
same,FOLD ACT. MS,[4],B (B (Fold Activation <250%))
CN(C)c1cccc(C(=O)Nc2cccc(-c3nc4ncccc4[nH]3)c2)c1 [Compound 183],EC50,SIRT1 activation,5 to 50 µM
same,FOLD ACT. MS,[4],A (A (Fold activation >250%))
O=C(Nc1ccccc1-c1cn2c(CN3CCNCC3)csc2n1)c1cccc(-c2ccccc2)c1 [Compound 710],EC50,SIRT1 activation,< 5 µM
same,FOLD ACT. MS,[3],A (A (Fold activation >250%))
COc1ccc(C(=O)Nc2ccc(-c3nc4ccncc4o3)s2)c(OC)c1 [Compound 561],FOLD ACT. MS,[2],B (B (Fold Activation <250%))
same,EC50,Sirt1 activators,< 5 µM
COc1ccc(C(=O)Nc2cccc(-c3nc4ccncc4o3)c2)cc1OC [Compound 454],EC50,SIRT1 activation,5 to 50 µM
same,FOLD ACT. MS,[1],B (B (Fold Activation <250%))
COc1cc(C(=O)Nc2cccc(-c3nc4cccnc4s3)c2)cc(OC)c1OC [Compound 217],EC50,SIRT1 activation,< 5 µM
same,FOLD ACT. MS,[4],A (A (Fold activation >250%))
O=C(Nc1ccccc1-c1nc2cc(CN3CCNCC3)cnc2s1)c1cnc2ccccc2n1 [Compound 622],FOLD ACT. MS,[2],A (A (Fold activation >250%))
same,EC50,Sirt1 activators,< 5 µM
COc1cc(C(=O)Nc2ccccc2-c2nc3cnccc3o2)cc(OC)c1OC [Compound 405],EC50,SIRT1 activation,< 5 µM
same,FOLD ACT. MS,[1],B (B (Fold Activation <250%))
COc1cc(C)ccc1C(=O)Nc1ccccc1-c1nc2cccnc2[nH]1 [Compound 523],FOLD ACT. MS,[2],B (B (Fold Activation <250%))
same,EC50,Sirt1 activators,5 to 50 µM
COc1cc(OC)cc(C(=O)Nc2cccc(-c3nc4cnccc4o3)c2)c1 [Compound 297],EC50,SIRT1 activation,5 to 50 µM
same,FOLD ACT. MS,[1],B (B (Fold Activation <250%))
COc1ccc(C(=O)Nc2cccc(-c3nc4cccnc4[nH]3)c2)cc1OC [Compound 185],EC50,SIRT1 activation,< 5 µM
same,FOLD ACT. MS,[4],A (A (Fold activation >250%))
COc1ccc(C(=O)Nc2cccc(-c3nc4cnccc4o3)c2)c(OC)c1OC [Compound 343],EC50,SIRT1 activation,5 to 50 µM
same,FOLD ACT. MS,[1],B (B (Fold Activation <250%))
